Source: PMC5785774 (ACS Central Science, 2018)

Molecular target: PKCδ-C1b (Mus musculus, UniProt P28867)
Assay: Kd measured in the peptide-phospholipid composition used for NMR
Format: binding

Chain of PKCδ-C1b (P28867 231-281 limits assumed): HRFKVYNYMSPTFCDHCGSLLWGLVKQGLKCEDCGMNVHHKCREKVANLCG

Work on CCCC(=O)O[C@@H]1[C@@H](C)[C@@]2(O)[C@@H](C=C(CO)C[C@]3(O)C(=O)C(C)=C[C@@H]23)[C@@H]2C(C)(C)[C@]12OC(=O)CCC [phorbol 12,13-dibutyrate] yielded a Kd of 1.5 nM.
